The text below walks through data of ChEMBL document CHEMBL4364251, “Design, synthesis and biological evaluation of new quinoline derivatives as potential antitumor agents” (Eur J Med Chem, 2019).

For assay [1], the system named is HCT-116. Briefly: Induction of autophagy in human HCT116 cells assessed as increase in LC3B-2 protein expression level incubated for 24 hrs by Western blot analysis. It counts as functional, cell-based.
For assay [2], the system named is HCT-116. The assay can be described thus: Induction of apoptosis in human HCT116 cells assessed as late apoptotic cells incubated for 24 hrs by annexin-V-FITC/PI staining based FACS analysis. It counts as functional, cell-based.
Assay [3] concerns RKO. The assay can be described thus: Inhibition of colony formation in human RKO cells incubated for 24 hrs followed by compound washout and subsequent incubation for 10 to 14 days by crystal violet staining based assay. In kind it is functional, cell-based.
In assay [4] the test system is HCT-116. The assay can be described thus: Antiproliferative activity against human HCT116 cells expressing ATG5(-/-) assessed as cell viability incubated for 24 hrs by CCK8 assay. It counts as functional, cell-based.
Assay [5] relates to HCT-116. Briefly: Induction of apoptosis in human HCT116 cells assessed as necrotic cells at 4 uM incubated for 24 hrs by annexin-V-FITC/PI staining based FACS analysis (reference value: 0.71 to 2.26%). In kind it is functional.
The test system of assay [6] is HCT-116. Briefly: Induction of apoptosis in human HCT116 cells assessed as late apoptotic cells at 8 uM incubated for 24 hrs by annexin-V-FITC/PI staining based FACS analysis (reference value: 1.55 to 1.56%). In kind it is functional.
Assay [7] deals with A2780. The assay can be described thus: Antiproliferative activity against human A2780 cells incubated for 48 hrs by MTT assay. In kind it is functional, cell-based. The note with it: A2780, 48 h.
The test system of assay [8] is HCT-116. The assay can be described thus: Growth inhibition of human HCT116 cells at 1 uM by CCK-8 assay. It counts as functional, cell-based. As to conditions: TDE = time-dependent effect.
Assay [9] deals with NCI-H1650. Briefly: Antiproliferative activity against human NCI-H1650 cells incubated for 48 hrs by MTT assay. As to conditions: NCI-H1650, 48 h. In kind it is functional, cell-based.
For assay [10], the system named is HCT-116. The assay can be described thus: Induction of apoptosis in human HCT116 cells assessed as viable cells at 8 uM incubated for 24 hrs by annexin-V-FITC/PI staining based FACS analysis (reference value: 94.35 to 94.43%). As to conditions: HCT-116, 24 h, read-out: Activity. It counts as functional.
For assay [11], the system named is RKO. The assay can be described thus: Antiproliferative activity against human RKO cells incubated for 48 hrs by MTT assay. It counts as functional, cell-based.
Assay [12] concerns HCT-116. The assay can be described thus: Induction of apoptosis in human HCT116 cells assessed as viable cells at 4 uM incubated for 24 hrs by annexin-V-FITC/PI staining based FACS analysis (reference value: 94.35 to 94.43%). It counts as functional. As to conditions: HCT-116, 24 h, read-out: Activity.
For assay [13], the system named is HCT-116. Briefly: Induction of apoptosis in human HCT116 cells assessed as viable cells at 4 uM incubated for 24 hrs in presence of pan-caspase inhibitor z-VAD-FMK by annexin-V-FITC/PI staining based FACS analysis (reference value: 85.28%). It counts as functional. The note with it: HCT-116, 24 h, read-out: Activity.
In assay [14] the test system is HCT-116. Briefly: Induction of apoptosis in human HCT116 cells deficient in ATG7 assessed as necrotic cells at 8 uM incubated for 24 hrs by annexin-V-FITC/PI staining based FACS analysis (reference value: 5.58%). It counts as functional.
The test system of assay [15] is RKO. The assay can be described thus: Growth inhibition of human RKO cells incubated for 24 hrs by CCK-8 assay. In kind it is functional, cell-based.
Assay [16] deals with HCT-116. The assay can be described thus: Induction of apoptosis in human HCT116 cells assessed as late apoptotic cells at 8 uM incubated for 24 hrs in presence of pan-caspase inhibitor z-VAD-FMK by annexin-V-FITC/PI staining based FACS analysis (reference value: 6.04%). It counts as functional.
Assay [17] concerns HCT-116. Briefly: Inhibition of colony formation in human HCT116 cells incubated for 24 hrs followed by compound washout and subsequent incubation for 10 to 14 days by crystal violet staining based assay. In kind it is functional, cell-based.

Calls of active or inactive are those of the source. The calls are words filed in the database; no cut-off is given here.

Regarding `COc1cccc(Nc2ccnc3cc(OCCCc4ccccc4)ccc23)c1`, the Activity result in assay [1] was “Dose-dependent effect”; in assay [2] it was “Dose-dependent effect”; in assay [5], 0.95%; in assay [6] it was 15.38 - 17.66%; in [14], 7.04%; in assay [16], 16%. For the same molecule, the inhibition entry in [3] and in [17] was “Dose-dependent effect” throughout. For the same molecule, the outcome in [4] was inactive. For the same molecule, the IC50 was 3.46 µM in assay [7], 6.3 µM in assay [9] and 3.67 µM in assay [11]. Moreover, the “growth inhibition (GI)” value in [8] is “Tde”; in [15] it was “Dose-dependent effect”. Further, in [10], the viability at 8 µM was in the range of 60.5 to 62.2%. For the same molecule, the results for the viability at 4 µM in assay [12] and in [13] were 75.4% and 75.1%, respectively.
